Experimental data from patent US5760188A, “Marker for neurotensin receptor” (Martin R&F Inc., priority 1996, dated 1998).

Key:
Solubility = type: physicochemical; conditions: distilled water or aqueous buffer
Stability / shelf life = type: physicochemical; conditions: protected from light and maintained at 4° C.

**Q.** Which results are given for `CC[C@H](C)[C@H](NC(=O)[C@H](Cc1ccc(O)cc1)NC(=O)[C@@H]1CCCN1C(=O)[C@H](CCCNC(=N)N)NC(=O)[C@H](CCCNC(=N)N)NC(=O)[C@@H]1CCCN1C(=O)[C@H](CCCCN)NC(=O)[C@H](CC(N)=O)NC(=O)[C@H](CCC(=O)O)NC(=O)[C@H](Cc1ccc(O)cc1)NC(=O)[C@H](CC(C)C)NC(=O)[C@H](CCC(=O)O)NC(=S)Nc1ccc2c(c1)C(=O)OC21c2ccc(O)cc2Oc2cc(O)ccc21)C(=O)N[C@@H](CC(C)C)C(=O)O` [N-FTC-[Glu^1]NT, N-fluoresceyl thiocarbamyl-[Glu^1] neurotensin]?
**A.** toxicity (Toxicity (statement)): 100% non-toxic; solubility (Solubility): freely soluble; stability (Stability / shelf life): stable
